The supplement of paper PMC10307832

Columns and labels:
Assay in all cases: relative viability (nuclei count vs DMSO), 5 days (fraction); higher = more cells survive
Daporinad + Foretinib = compound: O=C(/C=C/c1cccnc1)NCCCCC1CCN(C(=O)c2ccccc2)CC1 [Daporinad] + COc1cc2c(Oc3ccc(NC(=O)C4(C(=O)Nc5ccc(F)cc5)CC4)cc3F)ccnc2cc1OCCCN1CCOCC1 [Foretinib] (partner 0.25 µM)
Method in brief: (§1)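 Lung cancer cell lines were seeded in 1536-well plates and dosed by pin tool the next day, with either a single drug or a fixed anchor-drug dose combined with five library-drug doses (not always all listed) spaced in √10 steps. Five days later, one step fixed the cells and stained their nuclei (final 0.05% Triton X-100, 1% formaldehyde, 1 ug/ml Hoechst), and nuclei were counted on 4× images. Relative viability is the nuclei count in treated wells divided by the count in vehicle wells, and each value is the median of duplicate plates.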

R406 + Linsitinib = compound: COc1cc(Nc2ncc(F)c(Nc3ccc4c(n3)NC(=O)C(C)(C)O4)n2)cc(OC)c1OC [R406] + C[C@]1(O)C[C@@H](c2nc(-c3ccc4ccc(-c5ccccc5)nc4c3)c3c(N)nccn32)C1 [Linsitinib] (partner 1 µM)
Method in brief: as §1

Daporinad + OSI-027 = compound: O=C(/C=C/c1cccnc1)NCCCCC1CCN(C(=O)c2ccccc2)CC1 [Daporinad] + COc1cccc2cc(-c3nc([C@H]4CC[C@H](C(=O)O)CC4)n4ncnc(N)c34)[nH]c12 [OSI-027] (partner 0.5 µM)
Method in brief: as §1

Daporinad + Bortezomib = compound: O=C(/C=C/c1cccnc1)NCCCCC1CCN(C(=O)c2ccccc2)CC1 [Daporinad] + CC(C)C[C@H](NC(=O)[C@H](Cc1ccccc1)NC(=O)c1cnccn1)B(O)O [Bortezomib] (partner 0.002 µM)
Method in brief: as §1

## UMC-11
Daporinad + Foretinib; first compound 0.0005 µM
  relative viability: 1.11
Daporinad + Foretinib; first compound 0.001581 µM
  relative viability: 1.05
Daporinad + Foretinib; first compound 0.005 µM
  relative viability: 1.34
Daporinad + Foretinib; first compound 0.01581 µM
  relative viability: 1.22
R406 + Linsitinib; first compound 0.08 µM
  relative viability: 1.1
R406 + Linsitinib; first compound 0.253 µM
  relative viability: 1.1
R406 + Linsitinib; first compound 0.8 µM
  relative viability: 1.16
R406 + Linsitinib; first compound 2.53 µM
  relative viability: 0.935
R406 + Linsitinib; first compound 8 µM
  relative viability: 0.474
Daporinad + OSI-027; first compound 0.0005 µM
  relative viability: 0.469
Daporinad + OSI-027; first compound 0.001581 µM
  relative viability: 0.55
Daporinad + OSI-027; first compound 0.005 µM
  relative viability: 0.567
Daporinad + OSI-027; first compound 0.01581 µM
  relative viability: 0.689
Daporinad + Bortezomib; first compound 0.0005 µM
  relative viability: 0.668
Daporinad + Bortezomib; first compound 0.001581 µM
  relative viability: 0.373
Daporinad + Bortezomib; first compound 0.005 µM
  relative viability: 0.678
Daporinad + Bortezomib; first compound 0.01581 µM
  relative viability: 0.827
